The text below walks through data of article PMC11369174, “Proteome-scale characterisation of motif-based interactome rewiring by disease mutations” (Molecular Systems Biology, 2024).

Where a SMILES comes first, the peptide text is derived from it. The star is where a group is joined. FITC = O=C1OC2(c3ccc(O)cc3Oc3cc(O)ccc32)c2ccc(NC(=S)*)cc21

Settings in all cases: domain titrated to 10 nM FITC-peptide, 50 mM sodium phosphate pH 7.4, 0.05% Tween, quadratic fit, technical triplets, read-out: KD [µM] + SE
The target of assay [1] is KPNA4 ARM minor (Homo sapiens, UniProt O00629). Put plainly: FP saturation binding, KPNA4 ARM (minor).
The target in assay [2] is KPNA7 ARM (minor) (Homo sapiens, UniProt A9QM74). The experiment in a line: FP saturation binding, KPNA7 ARM (minor).
Assay [3] has as its target T1, Clathrin NTD (Homo sapiens, UniProt Q00610).
T1 sequence (Q00610 1-364): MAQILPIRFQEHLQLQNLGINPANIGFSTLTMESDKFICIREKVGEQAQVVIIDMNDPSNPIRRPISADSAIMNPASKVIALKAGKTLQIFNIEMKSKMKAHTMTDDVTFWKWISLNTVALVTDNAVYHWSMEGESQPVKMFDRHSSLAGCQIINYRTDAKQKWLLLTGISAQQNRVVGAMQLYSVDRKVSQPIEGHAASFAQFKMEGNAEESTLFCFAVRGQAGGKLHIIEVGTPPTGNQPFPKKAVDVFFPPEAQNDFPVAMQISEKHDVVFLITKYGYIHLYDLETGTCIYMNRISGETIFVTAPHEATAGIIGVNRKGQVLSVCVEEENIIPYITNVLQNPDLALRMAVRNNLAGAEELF
The experiment in a line: FP saturation binding, Clathrin NTD.
Protocol: In order to calculate the FP signal in millipolarisation (mP), the FITC-labelled peptides were excited at 485 nm and the emitted light was measured at 535 nm in two different angles. For saturation experiments, a dilution series of the respective protein domains was generated (25 µL) and 10 nM fluorescein isothiocyanate (FITC)-labelled peptide (diluted in 50 mM sodium phosphate buffer pH 7.4, 0.05% Tween) were added in an end volume of 50 µL. A control experiment titrating GST was performed for the binding of the NEDD4 WW2 domain, since the GST-tagged construct was used for affinity measurements. For fitting the data, the buffer-corrected reduced values were plotted in GraphPad PRISM against the respective protein concentration and the KD-values were obtained by fitting against the quadratic equation (Gianni et al, [2005]).

Assay [4] deals with CREBBP KIX (Homo sapiens, UniProt Q92793). Put plainly: FP saturation binding, CREBBP KIX.
Sequence of CREBBP KIX (Q92793 587-673): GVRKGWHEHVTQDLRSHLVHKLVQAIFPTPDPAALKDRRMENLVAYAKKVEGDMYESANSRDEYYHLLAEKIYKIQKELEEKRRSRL

Sequence of KPNA4 ARM minor (O00629 68-487): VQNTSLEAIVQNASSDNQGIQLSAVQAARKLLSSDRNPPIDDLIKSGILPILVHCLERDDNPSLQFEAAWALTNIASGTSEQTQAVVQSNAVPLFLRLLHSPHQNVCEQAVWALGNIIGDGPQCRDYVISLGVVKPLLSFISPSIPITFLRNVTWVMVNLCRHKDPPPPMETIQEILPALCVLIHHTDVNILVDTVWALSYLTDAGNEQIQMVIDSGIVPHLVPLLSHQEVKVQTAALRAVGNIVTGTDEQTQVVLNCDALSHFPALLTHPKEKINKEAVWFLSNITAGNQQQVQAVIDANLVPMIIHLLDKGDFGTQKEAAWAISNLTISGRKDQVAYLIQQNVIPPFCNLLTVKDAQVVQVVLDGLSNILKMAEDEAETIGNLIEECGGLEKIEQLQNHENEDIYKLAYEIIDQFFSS
Sequence of KPNA7 ARM (minor) (A9QM74 58-488 limits assumed): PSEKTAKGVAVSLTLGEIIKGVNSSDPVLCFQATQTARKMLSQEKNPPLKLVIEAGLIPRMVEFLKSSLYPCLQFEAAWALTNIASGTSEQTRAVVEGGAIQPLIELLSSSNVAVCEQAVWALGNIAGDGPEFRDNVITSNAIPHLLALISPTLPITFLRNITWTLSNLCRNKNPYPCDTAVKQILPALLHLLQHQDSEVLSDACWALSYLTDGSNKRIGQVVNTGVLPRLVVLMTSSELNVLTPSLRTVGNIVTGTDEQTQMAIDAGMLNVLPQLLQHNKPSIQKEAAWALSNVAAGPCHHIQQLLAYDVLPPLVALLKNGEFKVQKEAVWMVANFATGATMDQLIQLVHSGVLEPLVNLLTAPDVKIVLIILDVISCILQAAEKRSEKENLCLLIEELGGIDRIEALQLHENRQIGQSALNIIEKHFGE

The term Kd denotes the constant that tells how readily two partners part at equilibrium. Take `CC[C@H](C)[C@H](NC(=O)[C@H](C)NC(=O)[C@H](CCCNC(=N)N)NC(=O)CNC(=O)[C@@H](NC(=O)[C@H](CCCNC(=N)N)NC(=O)CNC(=O)[C@H](CCC(=O)O)NC(=O)[C@H](CCSC)NC(=O)[C@H](CCSC)NC(=O)[C@H](CC(=O)O)NC(=O)[C@H](Cc1ccc(O)cc1)NC(=O)[C@@H](NC(=O)[C@H](CCCNC(=N)N)NC(=O)[C@H](CCCCN)NC(=O)[C@@H]1CCCN1C(=S)Nc1ccc2c(c1)C(=O)OC21c2ccc(O)cc2Oc2cc(O)ccc21)[C@@H](C)O)C(C)C)C(N)=O` [FITC-NCOR2] ({FITC}-PKRTYDMMEGRVGRAI-NH2): the results for the dissociation constant (Kd) in assay [1] and in assay [2] were 0.03 ± 0.002 µM and 57 ± 9 µM, respectively.

As to `CC[C@H](C)[C@H](NC(=O)[C@H](CC(C)C)NC(=O)[C@H](CC(=O)O)NC(=O)[C@@H](NC(=O)[C@H](CO)NC(=S)Nc1ccc2c(c1)C(=O)OC21c2ccc(O)cc2Oc2cc(O)ccc21)C(C)C)C(=O)N[C@H](C(=O)N[C@@H](Cc1ccccc1)C(=O)N[C@@H](CC(=O)O)C(=O)N[C@@H](CO)C(=O)N[C@H](C(N)=O)C(C)C)[C@@H](C)O` [FITC-NSP3] ({FITC}-SVDLITFDSV-NH2), in assay [3], the Kd worked out at 21 ± 3 µM.

In the case of `CC(C)C[C@H](NC(=O)[C@H](CC(C)C)NC(=O)[C@H](CC(=O)O)NC(=O)[C@H](CO)NC(=O)[C@H](CC(C)C)NC(=O)[C@H](CCC(=O)O)NC(=O)[C@H](CCCCN)NC(=O)[C@H](CC(=O)O)NC(=S)Nc1ccc2c(c1)C(=O)OC21c2ccc(O)cc2Oc2cc(O)ccc21)C(=O)N[C@@H](CC(=O)O)C(=O)N[C@@H](Cc1ccccc1)C(=O)N[C@@H](CO)C(N)=O` [FITC-TCF3] ({FITC}-DKELSDLLDFS-NH2), the equilibrium dissociation constant (Kd) in assay [4] was 35 ± 4 µM.
